{"source": "patent US20200165312A1", "about": "“COSMETIC COMPOSITION FOR IMPROVING SKIN CONDITIONS COMPRISING FUSION PROTEIN INCLUDING SKIN PENETRATION ENHANCING PEPTIDE” (LG HOUSEHOLD & HEALTH CARE LTD., priority 2017, published 2020)", "key": {"skin keratinocytes": {"test_system": "skin keratinocytes", "experiment": "Keratinocyte growth (skin barrier strengthening), Cell Counter Kit-8", "type": "cell-based", "conditions": "100 ng/mL T-IGF-1 or IGF-1, one day; control = 100", "protocol": "(§1) Specifically, skin keratinocytes were cultured in a 96-well plate for one day to obtain cultures at a density of 6,000 cells per well. The cultures were washed with PBS and cultured in a serum-free DMEM medium for one day. The cells were washed with PBS again and cultured in a serum-free DMEM medium supplemented with 100 ng/mL T-IGF-1 or IGF-1 for one day. The cultures were obtained therefrom and a difference between proliferated amounts of cells was quantitively analyzed using the Cell Counter Kit-8 (Dojindo). Here, skin keratinocytes cultured in a serum-free DMEM medium without T-IGF-1 or IGF-1 were used as a control (Table 14).\nSpecifically, skin keratinocytes were cultured in a 96-well plate for 24 hours to obtain cultures at a density of 6,000 cells per well.\nas §1, with “The” for “Specifically, skin keratinocytes were cultured in a 96-well plate for one day to obtain cultures at a density of 6,000 cells per well. The”, “T-KGF” for “T-IGF-1”, “KGF” for “IGF-1”, “18).” for “14).”"}, "[1]": {"experiment": "Skin retentivity of growth factor fusion proteins (porcine skin disrupted, ELISA)", "type": "in vitro ADME", "conditions": "for Remaining amount (%): skin after 16 hours penetration test", "protocol": "(§2) Specifically, the porcine skin remained after the experiment of Example 3-2-4 was recovered, frozen in liquid nitrogen, and disrupted. An amount of PDGFa or T-PDGFa contained therein was quantitatively analyzed using the ELISA kit (R&D Systems). In addition, a relative amount of T-PDGFa to PDGFa was calculated as a remaining amount (Table 8).\nSpecifically, the porcine skin remained after the experiment of Example 3-3-4 was recovered, frozen in liquid nitrogen, and disrupted. An amount of VEGF or T-VEGF contained therein was quantitatively analyzed using the ELISA kit (R&D Systems).\nas §2, with “3-4-4” for “3-2-4”, “IGF-1” for “PDGFa”, “T-IGF-1” for “T-PDGFa”, “17).” for “8).”\nas §2, with “3-5-3” for “3-2-4”, “KGF” for “PDGFa”, “T-KGF” for “T-PDGFa”, “21).” for “8).”\nas §2, with “3-6-3” for “3-2-4”, “Tβ4” for “PDGFa”, “T-Tβ4” for “T-PDGFa”, “25).” for “8).”"}, "[2]": {"test_system": "human umbilical vein endothelial cells", "experiment": "Endothelial cell proliferation, Cell Counter Kit-8", "type": "cell-based", "conditions": "for Proliferation (%): 100 ng/mL T-Tβ4 or Tβ4, serum-free M199, one day, control = 100", "protocol": "Specifically, human umbilical vein endothelial cells were inoculated onto a 96-well plate and cultured for 24 hours to obtain cultures at a density of 5,000 cells per well. The cultures were washed with PBS and cultured in a serum-free M199 medium for 16 hours. […] The cultures were obtained therefrom and a difference between proliferated amounts of cells was quantitively analyzed using the Cell Counter Kit-8 (Dojindo).\nSpecifically, human umbilical vein endothelial cells were inoculated onto a 96-well plate and cultured for 24 hours to obtain cultures at a density of 5,000 cells per well. The cultures were washed with PBS and cultured in a serum-free M199 medium for 16 hours. The cells were washed with PBS again and cultured in a serum-free M199 medium supplemented with 100 ng/mL T-Tβ4 or Tβ4 for one day. The cultures were obtained therefrom and a difference between proliferated amounts of cells was quantitively analyzed using the Cell Counter Kit-8 (Dojindo). Here, human umbilical vein endothelial cells cultured in a serum-free M199 medium without T-Tβ4 or Tβ4 were used as a control (Table 22)."}, "dermal fibroblasts [3]": {"test_system": "dermal fibroblasts", "experiment": "Collagen production in dermal fibroblasts (ELISA)", "type": "cell-based, human", "conditions": "10 ng/mL, serum-free DMEM, two days; control = 100", "protocol": "(§3) Specifically, dermal fibroblasts were inoculated onto a 24-well plate and cultured for 24 hours to obtain cultures having a saturation degree of 70 to 80%. The cultures were washed with PBS and cultured in a serum-free DMEM medium including 10 ng/mL T-PDGFa or PDGFa for two days. A supernatant was obtained therefrom and the amount of collagen produced and released in the culture solution was quantitively analyzed using an ELISA kit (R&D Systems) (Table 4)."}, "dermal fibroblasts [4]": {"test_system": "dermal fibroblasts", "experiment": "Hyaluronic acid (HA) production in dermal fibroblasts (ELISA)", "type": "cell-based, human", "conditions": "10 ng/mL T-PDGFa or PDGFa, two days; control = 100", "protocol": "as §3, with “hyaluronic acid (HA)” for “collagen”, “5).” for “4).”\nSpecifically, dermal fibroblasts were inoculated onto a 24-well plate and cultured for 24 hours to obtain cultures having a saturation degree of 70 to 80%. […] A supernatant was obtained therefrom and the amount of hyaluronic acid (HA) produced and released in the culture solution was quantitively analyzed using an ELISA kit (R&D Systems) (Table 9)."}}}
{"substance": "IGF-1: insulin-like growth factor-1 having an amino acid sequence of SEQ ID NO: 41", "values": [{"measurement": "Production (%) (keratinocyte growth)", "setting": "skin keratinocytes", "value": "250 ± 20", "unit": "%"}, {"measurement": "Remaining amount (%)", "setting": "[1]; relative to IGF-1", "value": "100 ± 28", "unit": "%"}]}
{"substance": "Tβ4: thymosin beta 4 having an amino acid sequence of SEQ ID NO: 47", "values": [{"measurement": "Proliferation (%)", "setting": "[2]", "value": "180 ± 8", "unit": "%"}, {"measurement": "Remaining amount (%)", "setting": "[1]; relative to Tβ4", "value": "100 ± 17", "unit": "%"}]}
{"substance": "PDGFa: platelet-derived growth factor subunit a having an amino acid sequence of SEQ ID NO: 35", "values": [{"measurement": "Production (%) of collagen", "setting": "dermal fibroblasts [3]", "value": "264 ± 17", "unit": "%"}, {"measurement": "Production (%) of hyaluronic acid (HA)", "setting": "dermal fibroblasts [4]", "value": "897 ± 30", "unit": "%"}, {"measurement": "Remaining amount (%)", "setting": "[1]; relative to PDGFa", "value": "100 ± 20", "unit": "%"}]}
{"substance": "T-Tβ4: SEQ ID NO: 1 peptide C-terminal linked to N-terminal of Tβ4 via GG linker (NGSLNTHLAPILGGSDKPDMAEIEKFDKSKLKKTETQEKNPLPSKETIEQEKQAGES; Synthetic Fusion protein of T-T beta 4)", "values": [{"measurement": "Proliferation (%)", "setting": "[2]", "value": "165 ± 17", "unit": "%"}, {"measurement": "cell proliferation effect compared with the unfused protein", "setting": "[2]; human umbilical vein endothelial cells, 100 ng/mL", "value": "same level"}, {"measurement": "Remaining amount (%)", "setting": "[1]; relative to Tβ4", "value": "9,600 ± 450%"}, {"measurement": "skin retentivity higher than the unfused protein", "setting": "[1]; summary of Tables 8, 13, 17, 21, 25", "value": "about 100 times"}]}
